Reference: ChEMBL document CHEMBL1146769, “The discovery of N-(1,3-thiazol-2-yl)pyridin-2-amines as potent inhibitors of KDR kinase” (Bioorg Med Chem Lett, 2004)

Assays:
[1] = target: Vascular endothelial growth factor receptor 2 (Homo sapiens, UniProt P35968); experiment: Inhibitory activity towards vascular endothelial growth factor receptor 2
[2] = target: Vascular endothelial growth factor receptor 1 (Homo sapiens) (UniProt P17948); experiment: Selectivity for Vascular endothelial growth factor receptor 1 over (KDR) kinase insert domain receptor
[3] = target: Proto-oncogene tyrosine-protein kinase Src (Homo sapiens) (UniProt P12931); experiment: Selectivity for Src protein tyrosine kinase over (KDR) kinase insert domain receptor
[4] = target: Fibroblast growth factor receptor 2 (Homo sapiens) (UniProt P21802); experiment: Selectivity for Fibroblast growth factor receptor 2 over (KDR) kinase insert domain receptor
[5] = target: Fibroblast growth factor receptor 1 (Homo sapiens) (UniProt P11362); experiment: Selectivity for Fibroblast growth factor receptor 1 over (KDR) kinase insert domain receptor
[6] = target: Vascular endothelial growth factor receptor 3 (Homo sapiens) (UniProt P35916); experiment: Selectivity for Vascular endothelial growth factor receptor 3 over (KDR) kinase insert domain receptor
[7] = target: Platelet-derived growth factor receptor beta (Homo sapiens) (UniProt P09619); experiment: Selectivity for PDGFRbeta over (KDR) kinase insert domain receptor

Vascular endothelial growth factor receptor 2, sequence (P35968 whole entry, the tested form may be a part): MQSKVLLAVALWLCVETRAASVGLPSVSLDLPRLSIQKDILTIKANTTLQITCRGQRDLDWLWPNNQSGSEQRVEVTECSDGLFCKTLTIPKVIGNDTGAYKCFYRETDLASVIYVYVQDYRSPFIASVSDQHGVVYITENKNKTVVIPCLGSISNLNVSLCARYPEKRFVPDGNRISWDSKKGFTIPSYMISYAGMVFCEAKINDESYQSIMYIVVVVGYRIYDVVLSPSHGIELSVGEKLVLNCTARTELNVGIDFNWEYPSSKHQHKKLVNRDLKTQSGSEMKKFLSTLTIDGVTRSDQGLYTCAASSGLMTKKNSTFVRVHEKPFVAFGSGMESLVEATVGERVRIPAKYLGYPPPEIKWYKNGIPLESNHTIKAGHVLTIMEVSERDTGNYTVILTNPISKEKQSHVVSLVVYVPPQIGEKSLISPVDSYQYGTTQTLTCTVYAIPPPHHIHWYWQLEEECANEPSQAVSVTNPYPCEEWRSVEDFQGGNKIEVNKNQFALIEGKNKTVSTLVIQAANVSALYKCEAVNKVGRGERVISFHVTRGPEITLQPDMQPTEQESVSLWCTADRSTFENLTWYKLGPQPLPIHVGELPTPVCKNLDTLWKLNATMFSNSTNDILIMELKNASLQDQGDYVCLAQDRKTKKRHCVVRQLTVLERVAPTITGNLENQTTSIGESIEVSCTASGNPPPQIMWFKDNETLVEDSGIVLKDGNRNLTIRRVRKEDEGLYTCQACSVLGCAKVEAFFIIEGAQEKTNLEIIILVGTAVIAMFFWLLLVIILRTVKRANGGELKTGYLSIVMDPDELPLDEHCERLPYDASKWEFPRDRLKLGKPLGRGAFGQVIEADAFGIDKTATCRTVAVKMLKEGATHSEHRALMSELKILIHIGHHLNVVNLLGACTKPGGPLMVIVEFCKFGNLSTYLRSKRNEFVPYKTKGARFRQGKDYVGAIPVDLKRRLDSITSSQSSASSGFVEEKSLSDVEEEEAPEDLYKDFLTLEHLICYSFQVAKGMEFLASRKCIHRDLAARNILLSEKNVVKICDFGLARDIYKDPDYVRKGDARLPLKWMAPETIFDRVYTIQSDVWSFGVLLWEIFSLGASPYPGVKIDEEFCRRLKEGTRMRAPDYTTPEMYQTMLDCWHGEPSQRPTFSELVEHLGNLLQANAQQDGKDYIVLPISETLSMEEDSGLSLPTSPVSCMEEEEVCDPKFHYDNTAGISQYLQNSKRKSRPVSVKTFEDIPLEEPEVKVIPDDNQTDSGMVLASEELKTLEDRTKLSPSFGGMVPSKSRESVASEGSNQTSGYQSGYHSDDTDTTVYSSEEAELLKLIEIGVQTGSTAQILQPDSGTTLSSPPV
Fibroblast growth factor receptor 2 (Homo sapiens), sequence (P21802 22-821 limits assumed): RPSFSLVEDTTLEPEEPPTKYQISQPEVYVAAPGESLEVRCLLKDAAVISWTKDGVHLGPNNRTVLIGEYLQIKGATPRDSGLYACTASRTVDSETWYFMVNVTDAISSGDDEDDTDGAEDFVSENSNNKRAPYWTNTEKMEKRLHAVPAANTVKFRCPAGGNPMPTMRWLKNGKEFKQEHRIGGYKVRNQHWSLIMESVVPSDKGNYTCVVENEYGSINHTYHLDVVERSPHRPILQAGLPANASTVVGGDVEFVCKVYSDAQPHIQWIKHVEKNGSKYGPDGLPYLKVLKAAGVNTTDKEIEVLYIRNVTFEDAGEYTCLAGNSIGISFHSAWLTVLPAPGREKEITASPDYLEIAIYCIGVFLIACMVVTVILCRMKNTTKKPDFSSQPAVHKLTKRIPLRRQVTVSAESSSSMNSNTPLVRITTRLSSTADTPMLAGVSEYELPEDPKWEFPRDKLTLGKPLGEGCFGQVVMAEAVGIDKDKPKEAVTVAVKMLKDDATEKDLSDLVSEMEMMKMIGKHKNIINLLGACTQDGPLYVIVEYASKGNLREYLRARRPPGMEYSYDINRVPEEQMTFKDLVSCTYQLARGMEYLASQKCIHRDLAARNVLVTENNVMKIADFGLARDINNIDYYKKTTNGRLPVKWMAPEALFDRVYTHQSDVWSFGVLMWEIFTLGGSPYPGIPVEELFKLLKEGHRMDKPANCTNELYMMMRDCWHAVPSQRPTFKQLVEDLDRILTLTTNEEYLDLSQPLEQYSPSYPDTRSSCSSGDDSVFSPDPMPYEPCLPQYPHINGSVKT
Vascular endothelial growth factor receptor 3 (Homo sapiens), sequence (P35916 whole entry, the tested form may be a part): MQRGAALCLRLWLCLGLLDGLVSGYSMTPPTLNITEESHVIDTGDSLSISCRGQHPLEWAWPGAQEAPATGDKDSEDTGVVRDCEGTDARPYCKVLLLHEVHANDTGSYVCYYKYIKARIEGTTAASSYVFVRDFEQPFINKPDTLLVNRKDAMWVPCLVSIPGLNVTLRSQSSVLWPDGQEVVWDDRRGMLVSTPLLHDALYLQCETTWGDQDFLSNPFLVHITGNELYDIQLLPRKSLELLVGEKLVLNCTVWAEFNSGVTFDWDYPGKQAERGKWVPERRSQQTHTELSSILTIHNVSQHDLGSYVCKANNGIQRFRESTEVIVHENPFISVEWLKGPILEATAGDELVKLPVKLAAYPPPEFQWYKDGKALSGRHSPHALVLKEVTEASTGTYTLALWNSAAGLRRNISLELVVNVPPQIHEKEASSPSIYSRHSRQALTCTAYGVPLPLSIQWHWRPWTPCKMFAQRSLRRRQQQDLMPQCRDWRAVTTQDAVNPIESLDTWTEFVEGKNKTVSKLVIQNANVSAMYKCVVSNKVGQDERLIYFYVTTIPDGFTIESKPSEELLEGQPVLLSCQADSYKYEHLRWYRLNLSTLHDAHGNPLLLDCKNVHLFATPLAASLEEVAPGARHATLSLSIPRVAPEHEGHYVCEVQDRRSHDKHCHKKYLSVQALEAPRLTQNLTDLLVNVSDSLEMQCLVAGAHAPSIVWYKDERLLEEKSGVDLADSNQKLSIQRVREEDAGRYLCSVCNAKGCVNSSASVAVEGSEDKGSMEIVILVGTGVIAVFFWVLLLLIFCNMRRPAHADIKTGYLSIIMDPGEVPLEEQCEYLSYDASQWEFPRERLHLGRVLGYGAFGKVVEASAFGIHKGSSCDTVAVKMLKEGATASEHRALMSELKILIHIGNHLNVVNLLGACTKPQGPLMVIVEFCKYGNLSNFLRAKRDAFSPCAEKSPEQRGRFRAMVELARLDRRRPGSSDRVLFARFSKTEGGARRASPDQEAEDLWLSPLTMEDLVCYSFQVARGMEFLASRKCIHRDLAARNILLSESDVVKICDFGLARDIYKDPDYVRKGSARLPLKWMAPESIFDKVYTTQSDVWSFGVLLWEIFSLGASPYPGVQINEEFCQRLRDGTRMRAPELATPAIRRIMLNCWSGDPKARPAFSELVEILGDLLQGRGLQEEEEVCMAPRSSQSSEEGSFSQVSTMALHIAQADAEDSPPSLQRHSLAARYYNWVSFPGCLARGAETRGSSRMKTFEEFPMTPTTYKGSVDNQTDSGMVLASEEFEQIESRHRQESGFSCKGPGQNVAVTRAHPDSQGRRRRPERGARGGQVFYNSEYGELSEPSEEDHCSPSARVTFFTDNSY
Fibroblast growth factor receptor 1 (Homo sapiens), sequence (P11362 22-822 limits assumed): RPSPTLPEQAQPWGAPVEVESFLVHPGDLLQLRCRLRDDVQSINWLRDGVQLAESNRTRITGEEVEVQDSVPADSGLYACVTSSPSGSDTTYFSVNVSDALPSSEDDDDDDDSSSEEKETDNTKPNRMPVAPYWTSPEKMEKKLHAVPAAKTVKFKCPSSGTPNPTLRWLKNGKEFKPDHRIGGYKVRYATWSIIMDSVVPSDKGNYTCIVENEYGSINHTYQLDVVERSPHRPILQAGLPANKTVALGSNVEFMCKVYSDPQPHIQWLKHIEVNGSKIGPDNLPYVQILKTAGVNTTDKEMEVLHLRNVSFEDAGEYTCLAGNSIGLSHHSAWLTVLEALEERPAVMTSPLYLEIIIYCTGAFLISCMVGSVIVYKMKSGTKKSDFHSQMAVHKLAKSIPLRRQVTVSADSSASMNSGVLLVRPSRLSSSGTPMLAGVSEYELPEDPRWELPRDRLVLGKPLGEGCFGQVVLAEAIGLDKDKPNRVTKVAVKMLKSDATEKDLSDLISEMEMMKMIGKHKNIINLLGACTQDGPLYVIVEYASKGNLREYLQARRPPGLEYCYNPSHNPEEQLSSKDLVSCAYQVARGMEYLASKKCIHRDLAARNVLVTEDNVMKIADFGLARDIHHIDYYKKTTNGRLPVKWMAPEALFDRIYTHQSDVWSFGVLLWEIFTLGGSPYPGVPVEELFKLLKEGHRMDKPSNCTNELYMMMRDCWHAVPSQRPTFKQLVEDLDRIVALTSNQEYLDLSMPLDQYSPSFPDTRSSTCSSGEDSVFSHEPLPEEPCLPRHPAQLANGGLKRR
Proto-oncogene tyrosine-protein kinase Src (Homo sapiens), sequence (P12931 2-536 limits assumed): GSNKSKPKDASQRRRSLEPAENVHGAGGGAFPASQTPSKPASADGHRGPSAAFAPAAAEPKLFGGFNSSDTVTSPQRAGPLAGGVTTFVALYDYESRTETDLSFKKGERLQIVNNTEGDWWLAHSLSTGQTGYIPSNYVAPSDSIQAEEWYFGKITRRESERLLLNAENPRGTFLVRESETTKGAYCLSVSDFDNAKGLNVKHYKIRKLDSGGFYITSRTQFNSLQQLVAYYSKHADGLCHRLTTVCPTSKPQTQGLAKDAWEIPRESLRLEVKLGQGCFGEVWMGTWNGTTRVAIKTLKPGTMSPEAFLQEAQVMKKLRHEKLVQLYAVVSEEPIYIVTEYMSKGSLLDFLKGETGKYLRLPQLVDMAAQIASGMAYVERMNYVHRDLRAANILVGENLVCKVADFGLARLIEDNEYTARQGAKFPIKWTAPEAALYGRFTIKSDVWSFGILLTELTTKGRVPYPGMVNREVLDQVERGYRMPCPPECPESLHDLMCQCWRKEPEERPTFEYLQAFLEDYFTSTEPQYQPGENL

| Compound | IC50 [1] [nM] | Selectivity [2] | Selectivity [3] | Selectivity [4] | Selectivity [5] | Selectivity [6] | Selectivity [7] |
| --- | --- | --- | --- | --- | --- | --- | --- |
| c1ccc(-c2cnc(Nc3ccccn3)o2)cc1 | 1880 | – | – | – | – | – | – |
| O=C(Nc1ncc(-c2ccccc2)s1)c1ccccc1 | – | 4 | > 240 | 14 | 72 | 1 | – |
| Clc1cnc(Nc2ccccn2)s1 | 194 | – | – | – | – | – | – |
| Cc1cnc(Nc2ccccn2)s1 | 1270 | – | – | – | – | – | – |
| CCCCN(C)c1ccc(/N=N/c2ncc([N+](=O)[O-])s2)c(C)c1 | – | > 130 | > 130 | > 130 | > 130 | 1 | – |
| c1ccc(Nc2ncc(-c3ccccc3)s2)cc1 | 124 | – | – | – | – | – | – |
| c1ccc(-c2cnc(Nc3ccncc3)s2)cc1 | 259 | – | – | – | – | – | – |
| Brc1cnc(Nc2ccccn2)s1 | 71 | – | – | – | – | – | – |

The remaining lines, values ahead:

| IC50 [1] [nM] | Selectivity [2] | Selectivity [3] | Selectivity [4] | Selectivity [5] | Selectivity [6] | Selectivity [7] | Compound |
| --- | --- | --- | --- | --- | --- | --- | --- |
| 10 | 8 | 760 | 210 | 600 | 3 | 0.3 | Cc1cccc(Nc2ncc(-c3ccccc3)s2)n1 |
| 13 | 16 | 1200 | 200 | 820 | 3 | 1 | Cc1cccnc1Nc1ncc(-c2ccccc2)s1 |
| 11 | – | – | – | – | – | – | COc1ccnc(Nc2ncc(-c3ccccc3)s2)c1 |
| 3 | – | – | – | – | – | – | COc1cccc(Nc2ncc(-c3ccccc3)s2)n1 |
| 14 | 12 | 840 | 400 | 1620 | 3 | 0.3 | Brc1cccc(Nc2ncc(-c3ccccc3)s2)n1 |
| 36 | 30 | 678 | 107 | 214 | 4 | 68 | N#Cc1cnc(Nc2ccccn2)s1 |
| 6 | 7 | 190 | 50 | 220 | 2 | 0.5 | Cc1ccnc(Nc2ncc(-c3ccccc3)s2)c1 |
| 35 | 6 | > 580 | > 580 | > 580 | 1 | 0.1 | Clc1ccc(Nc2ncc(-c3ccccc3)s2)nc1 |
| 19 | 5 | 570 | 70 | 220 | 1 | 0.3 | Cc1ccc(Nc2ncc(-c3ccccc3)s2)nc1 |
| 46 | – | – | – | – | – | – | COc1cccnc1Nc1ncc(-c2ccccc2)s1 |
